# Measured values published in US5457030A, “Method and composition for determining antimicrobial susceptibility of the majority clinically significant Gram postitive organism” (MicroScan, Inc., priority 1993, dated 1995).
# Where two headings read alike, the source gives them in different places.
# Tests used:
# [1] = Redissolution of fluorogenic substrate after dehydration; type: physicochemical
# Text: In the Sensititre™ procedure the substrates mixture consists of alanyl-7-amido-4-methylcoumarin, 4-methylumebelliferyl phosphate and 4-methylumbelliferyl nonanoate. […] Moreover, a special procedure of drying the substrate mixture on a solid carrier in combination with an emulsifying agent was the preferred method in the EP #0,09187 description. Removal of this compound from the mixture allows easy preparation and aliquoting of the fluorogenic substrate mixture. […] The current fluorogenic substrate mixture also allows for testing of a larger range of Gram positive species than previously described. Additionally, the use of the autoSCAN®-W/A allows monitoring of growth for between 31/2 and 15 hours, determination of minimum inhibitory concentration occurring only when sufficient growth has been achieved. This ensures that the minimum inhibitory concentration determinations of each isolate is determined at the optimal time.
# Enterococcus faecalis [2] = experiment: Minimum inhibitory concentration determination, Example 1 (Table 7); type: cell-based
# Method: (§1) A primary inoculum suspension of a bacterial isolate in saline-pluronic, equivalent to a 0.5 McFarland turbidity standard is prepared. The final inoculum suspension is prepared by diluting a 0.3 ml aliquot of the primary suspension in 25 ml of Rapid Pos Inoculum Broth (B1015-14, Baxter Diagnostics Inc., MicroScan Division, West Sacramento, Calif.). A 115 μl of the final inoculum is added to the growth compartment which contains dried material of fluorogenic enzyme substrates equivalent to 0.023 mM leucine-7-amido-4-methylcoumarin, 0.012 mM phenylalanine-7-amido-4-methylcoumarin and 0.058 mM methylumbelliferyl phosphate and 1.15 mM HEPES buffer at pH 7.0. The final inoculum is also added to a number of compartments containing dried material identical to that in the growth well and different concentrations of an antimicrobial agent. An aliquot of the final inoculum is also added to a compartment, containing only dried HEPES buffer, acting as a control. The inoculated multicompartment device (panel) is inserted in the autoSCAN®-W/A. The fluorescence of each compartment is measured at predetermined times and a Growth Index is calculated by dividing the fluorescence of the growth compartment by that of the negative control compartment.
# (§2) If the value of the Growth Index is equal to or exceeds a specified value, the Minimum Inhibitory Concentration for every antimicrobial agent present in the multicompartment device is calculated. Otherwise the device is returned to its position and measured again at the next read time. The read times in this example are 3.5, 4.5, 5.5, 7.0, 8.0, 11.0, and 15.0 hours. For calculation of minimum inhibitory concentration, the percent fluorescence of compartments containing the different concentrations of the antimicrobial agent is calculated by subtracting from each compartment the fluorescence of the control well and dividing it by the delta fluorescence of the growth compartment, obtained by subtracting the fluorescence of the negative control compartment from the fluorescence of the growth compartment. The minimum inhibitory concentration is calculated using a mathematical model specific for each concentration range of the antimicrobial agent. Using a mathematical model based on discriminate functional analysis, the minimum inhibitory concentration of each antimicrobial agent, for the organism tested, can be determined. Utilization of a discriminate function analysis model in microbiological pattern recognition is described in S. Bascomb, Computers in Taxonomy and Systematics, p. 65-102 In T. N. Bryant and J. W. T. Wimpenny (Ed.), Computers in Microbiology, a Practical Approach (IRL Press, Oxford). In an alternative embodiment the minimum inhibitory concentration for each antimicrobial agent for the organism tested can be determined by a breakpoint or threshold method or linear regression analysis. J. McKie, et al., Antimicrobial Agents and Chemotherapy (1980) v. 17, 813-823.
# (§3) In Example 1, the growth of Enterococcus faecalis in wells containing specified amounts of antimicrobial agents is estimated by measurement of fluorescence. In Table 6, the percent fluorescence at different concentrations of antimicrobial agents is reported. For example, 0.12, 0.25, 0.5, 1, 2, 4 and 8 μg/mL of ampicillin (Am) were present in the microdilution wells.
# In Table 7, the minimum inhibitory concentration for Example 1 are reported.
# Enterococcus faecalis [3] = experiment: Percent fluorescence (growth) in wells containing antimicrobial agents, Example 1 (Table 6); type: cell-based; settings: Enterococcus faecalis; for activity at 0.25 µg/mL: .25 μg/mL; for activity at 32 µg/mL: 32 μg/mL
# Method: as §1
# ^FL growth - ^FL control
# as §2, §3
# The numbers 105, 105, 67, 7, 6, 5, 6 are percent fluorescence values as calculated in […]. These figures are used to determine susceptibility according to the methods discussed on pages 12 and 13.
# [4] = Enterococcus faecalis, Table 7, Example 1, read-out: concentration at which organism was found to be susceptible
# [5] = Table 7, Enterococcus faecalis, Example 1, read-out: minimum inhibitory concentration
# [6] = 1 μg/mL, read-out: percent fluorescence
# [7] = 2 μg/mL, read-out: percent fluorescence
# [8] = 4 μg/mL, read-out: percent fluorescence
# [9] = 8 μg/mL, read-out: percent fluorescence
# [10] = Enterococcus faecalis, Table 7, Example 1, read-out: concentration at which organism was found to be resistant
# [11] = 16 μg/mL, read-out: percent fluorescence
# [12] = Enterococcus faecalis, read-out: concentration at which organism was found to be susceptible
# [13] = Enterococcus faecalis, read-out: minimum inhibitory concentration
structure (smiles),measurement,setting,value
CCCCCCCCC(=O)Oc1ccc2c(C)cc(=O)oc2c1 [4-methylumbelliferyl nonanoate],redissolution after dehydration,[1],difficult to redissolve evenly after dehydration
CC1(C)S[C@@H]2[C@H](NC(=O)[C@H](N)c3ccccc3)C(=O)N2[C@H]1C(=O)O [Ampicillin],MIC,Enterococcus faecalis [2]; [4],0.5 µg/mL
same,MIC,Enterococcus faecalis [2]; [5],0.5 µg/mL
same,activity at 1 µg/mL,Enterococcus faecalis [3]; [6],7%
same,activity at 2 µg/mL,Enterococcus faecalis [3]; [7],6%
same,activity at 4 µg/mL,Enterococcus faecalis [3]; [8],5%
same,activity at 8 µg/mL,Enterococcus faecalis [3]; [9],6%
same,activity at 0.12 µg/mL,"Enterococcus faecalis [3]; .12 μg/mL, read-out: percent fluorescence",105%
same,activity at 0.25 µg/mL,Enterococcus faecalis [3]; read-out: percent fluorescence,105%
same,activity at 0.5 µg/mL,"Enterococcus faecalis [3]; .5 μg/mL, read-out: percent fluorescence",67%
Cn1nnnc1SCC1=C(C(=O)O)N2C(=O)[C@@H](NC(=O)[C@H](O)c3ccccc3)[C@H]2SC1 [Cefamandole],MIC,Enterococcus faecalis [2]; [10],> 16 µg/mL
same,MIC,Enterococcus faecalis [2]; [5],> 16 µg/mL
same,activity at 8 µg/mL,Enterococcus faecalis [3]; [9],104%
same,activity at 16 µg/mL,Enterococcus faecalis [3]; [11],105%
Cc1nnc(SCC2=C(C(=O)O)N3C(=O)[C@@H](NC(=O)Cn4cnnn4)[C@H]3SC2)s1 [Cefazolin],MIC,Enterococcus faecalis [2]; [10],> 16 µg/mL
same,MIC,Enterococcus faecalis [2]; [5],> 16 µg/mL
same,activity at 2 µg/mL,Enterococcus faecalis [3]; [7],105%
same,activity at 4 µg/mL,Enterococcus faecalis [3]; [8],102%
same,activity at 8 µg/mL,Enterococcus faecalis [3]; [9],104%
same,activity at 16 µg/mL,Enterococcus faecalis [3]; [11],100%
CO/N=C(\C(=O)N[C@@H]1C(=O)N2C(C(=O)O)=C(COC(C)=O)CS[C@H]12)c1csc(N)n1 [Cefotaxime],MIC,Enterococcus faecalis [2]; [4],< 4 µg/mL
same,MIC,Enterococcus faecalis [2]; [5],> 4 µg/mL
same,activity at 4 µg/mL,Enterococcus faecalis [3]; [8],10%
same,activity at 8 µg/mL,Enterococcus faecalis [3]; [9],8%
same,activity at 16 µg/mL,Enterococcus faecalis [3]; [11],8%
same,activity at 32 µg/mL,Enterococcus faecalis [3],7%
CO/N=C(\C(=O)N[C@@H]1C(=O)N2C(C(=O)O)=C(CSc3nc(=O)c(=O)[nH]n3C)CS[C@H]12)c1csc(N)n1 [Ceftriaxone],activity at 4 µg/mL,Enterococcus faecalis [3]; [8],15%
same,activity at 8 µg/mL,Enterococcus faecalis [3]; [9],9%
same,activity at 16 µg/mL,Enterococcus faecalis [3]; [11],8%
same,activity at 32 µg/mL,Enterococcus faecalis [3],7%
CO/N=C(\C(=O)N[C@@H]1C(=O)N2C(C(=O)O)=C(COC(N)=O)CS[C@H]12)c1ccco1 [Cefuroxime],MIC,Enterococcus faecalis [2]; [10],> 16 µg/mL
same,MIC,Enterococcus faecalis [2]; [5],> 16 µg/mL
same,activity at 2 µg/mL,Enterococcus faecalis [3]; [7],85%
same,activity at 4 µg/mL,Enterococcus faecalis [3]; [8],39%
same,activity at 8 µg/mL,Enterococcus faecalis [3]; [9],15%
same,activity at 16 µg/mL,Enterococcus faecalis [3]; [11],10%
"CC(=O)OCC1=C(C(=O)O)N2C(=O)[C@@H](NC(=O)Cc3cccs3)[C@H]2SC1 [Cephalothin, Cephalotin]",MIC,Enterococcus faecalis [2]; [12],16 µg/mL
same,MIC,Enterococcus faecalis [2]; [13],16 µg/mL
same,activity at 8 µg/mL,Enterococcus faecalis [3]; read-out: percent fluorescence,103%
same,activity at 16 µg/mL,Enterococcus faecalis [3]; read-out: percent fluorescence,7%
O=C(N[C@H](CO)[C@H](O)c1ccc([N+](=O)[O-])cc1)C(Cl)Cl [Chloramphenicol],MIC,Enterococcus faecalis [2]; [12],< 4 µg/mL
same,MIC,Enterococcus faecalis [2]; [13],< 4 µg/mL
same,activity at 4 µg/mL,Enterococcus faecalis [3]; read-out: percent fluorescence,9%
same,activity at 8 µg/mL,Enterococcus faecalis [3]; read-out: percent fluorescence,6%
same,activity at 16 µg/mL,Enterococcus faecalis [3]; read-out: percent fluorescence,4%
O=C(O)c1cn(C2CC2)c2cc(N3CCNCC3)c(F)cc2c1=O [Ciprofloxacin],MIC,Enterococcus faecalis [2]; [12],< 1 µg/mL
same,MIC,Enterococcus faecalis [2]; [13],< 1 µg/mL
same,activity at 1 µg/mL,Enterococcus faecalis [3]; read-out: percent fluorescence,6%
same,activity at 2 µg/mL,Enterococcus faecalis [3]; read-out: percent fluorescence,6%
same,activity at 4 µg/mL,Enterococcus faecalis [3]; read-out: percent fluorescence,6%
"CCC[C@@H]1C[C@@H](C(=O)N[C@@H]([C@H]2O[C@H](SC)[C@H](O)[C@@H](O)[C@H]2O)[C@H](C)Cl)N(C)C1 [Clindaimycin, Clindamycin]",MIC,Enterococcus faecalis [2]; [10],> 2 µg/mL
same,MIC,Enterococcus faecalis [2]; [5],> 2 µg/mL
same,activity at 1 µg/mL,Enterococcus faecalis [3]; [6],75%
same,activity at 2 µg/mL,Enterococcus faecalis [3]; [7],71%
same,activity at 5 µg/mL,Enterococcus faecalis [3]; 5 μg/mL (printed 5Cd),83%
same,activity at 0.25 µg/mL,Enterococcus faecalis [3]; read-out: percent fluorescence,88%
